Assay results published in patent publication US11214835B1, “Methods and compositions for diagnosis and management of neurodegerative diseases” (UNIVERSITY OF SOUTH FLORIDA, priority 2017, dated 2022).
Like-named read-outs stand apart in the source and are kept apart here.

Tests used:
[1] = tested on: GAS5 lncRNA; assay: γ-AApeptide OBOC combinatorial library screen with fluorescein tagged GAS5 oligonucleotide, hits validated in vitro; assay type: binding; details: fluorescein tagged GAS5 oligonucleotide probe, tRNA as control
Description: The interaction between UPF1 and GAS5 was disrupted using a γ-AApeptide based one-bead-one-compound (OBOC) combinatorial library (Wu H, Li Y, Bai G, Niu Y, Qiao Q, Tipton J D, Cao C, Cai J. gamma-AApeptide-based small-molecule ligands that inhibit Abeta aggregation. Chemical communications. 2014; 50(40):5206-8. doi: 10.1039/c3cc46685j. PubMed PMID: 24158240). The γ-AApeptide is a peptidomimetic with side chains for chemical diversity and are resistant to proteolytic cleavage. To screen the compound library, a probe that contained a fluorescein tagged oligonucleotide was synthesized. The probe spanned 30 nucleotides on either side of the UAA sequences on GAS5 (FIG. 13) The fluorescein was attached to the 5′end (beginning of oligonucleotide probe sequence). The nucleotide sequence within the GAS5 IncRNA that the oligonucleotide probe binds to can be about 100% identical to […] (SEQ ID NO: 4), which is nucleotides 541 to 651 of SEQ ID NO: 1. The underlined regions indicate the UAA that is the target regions. As such, the oligonucleotide probe was designed to flank both sides of these target regions.
The length of oligonucleotide was required to maintain stem loop structure to specifically bind to GAS5. Further, we modeled the oligonucleotide (RNAfold software) to evaluate its folding and verified absence of any unwanted secondary structures. The backbone was modified by 2′-MOE (2′-O-methoxyethylribose), which protects it from degradation and a fluoroscein tag was attached to the 5′end to aid in screening. The oligonucleotide probe was used to screen 160,000 molecules in the combinatorial library using tRNA as control (as tRNA has similar stem loop secondary structures). […] The compound having a structure according to Formula 3 was determined to have a chemical formula of C68H92N10O9S, a mass of about 1224.6769, and a molecular weight of 1225.6050. The compound having a structure according to Formula 14 was determined to have a chemical formula of C63H85N9O13S, a mass of about 1207.5988, and a molecular weight of 1208.4830. […]

[2] = tested on: GAS5; assay: Binding of side-chain derivatives to GAS5 (preliminary data)
[3] = tested on: HT22 cells; assay: Toxicity of side-chain derivatives to HT22 cells (preliminary data)
[4] = tested on: HT22 cells; details: mouse
[5] = after intranasal administration; cited from earlier work
[6] = tested on: GAS5; assay: GAS5 levels in NDM adipocytes after insulin, real-time qPCR; assay type: cell-based, human; details: about 10 nM, 24 hours
Description: Depletion of GAS5 decreases glucose uptake: Adipose tissue is the primary target for insulin-mediated glucose uptake. […] To maintain reproducibility over a larger number of experiments, adipose stem cells derived from normal or diabetic patients were purchased from Zenbio (BMI 20-24, Nondiabetic HbA1C 5.9 (hereafter referred as NDM); T2DM HbA1c 8.5 (hereafter referred as DM)). The adipose stem cells (ASC) were differentiated in vitro to mature adipocytes and used in experiments. GAS5 siRNA (10 nM, Ambion 332778, validated; scrambled siRNA as control) was transfected in NDM pre-adipocytes for 48 h, differentiated to mature NDM adipocytes for 8 days and knockdown confirmed by GAS5 SYBR Green qPCR. We determined the effect of GAS5 depletion on glucose uptake by NDM adipocytes. Cells were serum starved, 10 nM insulin was added to cells for 30 minutes and [^3H]-deoxy-2-D-Glucose uptake was measured. Results indicated a decrease in glucose uptake in GAS5 depleted NDM adipocytes ***p<0.001, highly significant using two-tailed students t-test.
About 10 nM insulin was added to NDM adipocytes for 24 hours. […] Separately, GAS5 was depleted in NDM adipocytes using GAS5 siRNA as described above to evaluate the insulin receptor mediated PI3K→AKT pathway. Whole cell lysates were evaluated by western blot analysis using antibodies against p-AKT and total AKT.

[7] = tested on: aged normal and aged diabetic (db/db) mice; assay: Radial arm water maze (RAWM) after intranasal insulin in aged normal and db/db mice; assay type: in vivo, mouse; details: 1 unit/ml daily for 3 weeks, both normal aged and aged diabetic mice
Description: (§1) Diabetes increases the risk for impaired cognitive function and dementia by 47%. Patients with T2DM have cognitive deficits affecting verbal and nonverbal memory, attention, information processing speed, and executive function. To assess the cognitive function with respect to insulin resistance in vivo, aged diabetic mice BKS.Cg-+ Lepr^db/+ Lepr^db/OlaHsd (Older db/db mice from Harlan were used; 11 months—as this mouse model has lower life span) along with their normal age-matched controls. We measured the levels of GAS5 and insulin receptor (IR) in young (4 months) and db/db mice along with their age-matched control mice. The hippocampi of the mice were collected and SYBR Green qPCR was performed. […] Intranasal insulin delivery is a noninvasive method that bypasses the blood-brain barrier and delivers insulin to the brain and the spinal cord. Biologically effective concentrations of insulin can be achieved without systemic side effects.
(§2) After intranasal administration, insulin and peptide analogues begin to accumulate in the CSF within 30 minutes. Intranasal insulin directly improves learning and memory and has no effect on circulating blood glucose levels. Thus, the effects may reflect activation of neuronal insulin signaling pathways. […] Errors (incorrect arm choices) and escape latency were recorded for each daily trial (FIGS. 3B-3C).

[8] = tested on: neurons; assay: Immunohistochemistry after insulin treatment; assay type: in vivo, mouse
Experimental: FIGS. 4A-4B show panels fluorescent microscopic images of the results from Immuno histochemical analysis post insulin treatment in neron cells. The bar in the images of the panel of FIG. 4B is 20 μm.
After intranasal administration, insulin and peptide analogues begin to accumulate in the CSF within 30 minutes. Intranasal insulin directly improves learning and memory and has no effect on circulating blood glucose levels. Thus, the effects may reflect activation of neuronal insulin signaling pathways. The age-matched control and db/db mice cohorts were treated with intranasal insulin (1 unit/ml, daily for 3 weeks) and the radial arm water maze (RAWM) was used for cognitive assessment. Errors (incorrect arm choices) and escape latency were recorded for each daily trial (FIGS. 3B-3C).

[9] = tested on: insulin receptor (IR); assay: Insulin receptor levels after intranasal insulin treatment; assay type: in vivo, mouse
Description: as §1, §2

C[C@H]1CN(C(=O)CC2CC2)CC(=O)N[C@@H](CCC(=O)O)CN(C(=O)CCC2CCCCC2)CC(=O)N[C@@H](Cc2ccccc2)CN(CC(N)=O)C(=O)CCSCc2ccc(cc2)C(=O)N[C@@H](Cc2ccccc2)CN(C(=O)CCC(=O)O)CC(=O)N1 [Formula 14]
ability to bind GAS5 (identified and validated from library screen) [1]: able to bind GAS5

CC(C)C[C@H]1CN(CC(N)=O)C(=O)CCSCc2ccc(cc2)C(=O)N[C@@H](C)CN(C(=O)CCc2ccccc2)CC(=O)N[C@@H](CC(C)C)CN(C(=O)CC2CC2)CC(=O)N[C@@H](CCCCN)CN(C(=O)CCC2CCCCC2)CC(=O)N1 [YS-D-66]
binding to GAS5 [2]: bound efficiently to GAS5
toxicity to HT22 cells [3]: not toxic to HT22 cells

CC(C)C[C@H]1CN(C(=O)CCc2ccccc2)CC(=O)N[C@@H](Cc2ccccc2)CN(C(=O)CC2CC2)CC(=O)N[C@@H](Cc2ccccc2)CN(CC(N)=O)C(=O)CCSCc2ccc(cc2)C(=O)N[C@@H](CCCCN)CN(C(=O)CCc2ccccc2)CC(=O)N1 [YS-D-68]
binding to GAS5 [2]: bound efficiently to GAS5
toxicity to HT22 cells [3]: not toxic to HT22 cells

CC(C)C[C@H]1CN(C(=O)CCc2ccccc2)CC(=O)N[C@@H](Cc2ccccc2)CN(C(=O)CC2CC2)CC(=O)N[C@@H](Cc2ccccc2)CN(CC(N)=O)C(=O)CCSCc2ccc(cc2)C(=O)N[C@@H](Cc2ccccc2)CN(C(=O)CCCN)CC(=O)N1 [YS-D-69]
binding to GAS5 [2]: bound efficiently to GAS5
toxicity to HT22 cells [3]: not toxic to HT22 cells

NCCCC[C@H]1CN(C(=O)CCCN)CC(=O)N[C@@H](CCC(=O)O)CN(CC(N)=O)C(=O)CCSCc2ccc(cc2)C(=O)N[C@@H](CCCCN)CN(C(=O)CCC(=O)O)CC(=O)N[C@@H](Cc2ccccc2)CN(C(=O)CCc2ccccc2)CC(=O)N1 [YS-D-70]
binding to GAS5 [2]: bound efficiently to GAS5
toxicity to HT22 cells [4]: not toxic to HT22 cells

insulin
time to begin to accumulate in the CSF [5]: ≤ 30 min
GAS5 levels in NDM adipocytes [6]: increase in GAS5 levels
cognitive performance in RAWM (errors, escape latency) [7]: improved the cognitive performance
neurogenesis [8]: increased
neuronal proliferation [8]: increased
levels of IR [9]: did not increase
